This note sets out measurements from patent US7201899B2, “Materials and methods for management of hyperacute rejection in human xenotransplantation” (BresaGen Limited, priority 1994, dated 2007).

Entries after “also recorded” stand apart in the source; their conditions may differ.

This test deals with rat heart. As to the kind of experiment: Langendorf isolated perfused ex vivo heart model. The following applies: sugar 10 mM, human plasma to 13%. The method, then:
A. Preparation and Storage of Human Plasma • 1. Centrifuge fresh human blood at 3000 rpm, 10 min., 4° C. to remove red blood cells (RBC's) • 2. Remove the plasma • 3. Centrifuge the plasma at 10,000 rpm, 10 min. 4° C. to remove any remaining cells; decant the plasma • 4. Add 2.5 ml of 0.1M EDTA pH 7.30 for every 50 ml of plasma • 5. Store 50 ml aliquots at −70° C. • 6. For heat-inactivated plasma, heat at 56° C. for 60 min., then centrifuge at 2,500 rpm for 10 min.
Plasma prepared from different blood packs is thawed at 37° C., pooled and filtered (100 μm steel mesh, 8.0 μm and 4.5 μm Millipore filters, sequentially). Cacl2 is added at 0.58 mg/ml plasma, and the plasma kept on ice until ready for perfusion.
1. Anesthetize rats with Nembutal (1 μl sodium pentobarbitone (60 mg/ml)/g body weight) and mice with ether.
2. Surgically expose the heart and inject heparin (Porcine Mucous, 10,000 U/ml) into the femoral vein (rats: 0.3 ml injected).
3. Remove heart and place in ice-cold Krebs-Henseleit buffer containing heparin (0.2 ml/50 ml buffer. • Krebs-Henseleit buffer: • 119 mM NaCl • 25 mM NaHCO3 • 4.6 mM KCl • 1.2 mM MgSO4.7H2O • 1.3 mM CaCl2.2H2O • 1.2 mM KH2PO4 • 11 mM glucose • 0.25% (v/v) BSA • Adjust to pH 7.4; store at 4° C.
4. Connect aorta to the canula of the Langendorf perfusion apparatus and tie firmly. The apparatus was assembled by the present inventors according to experimental requirements of the Langendorf heart model as described in Doring & Dehnerrt, The Isolated Perfused Heart According to Langendorf, Bionesstechnik-Verlag March GmbH, D7806, West Germany.
5. Perfuse with Krebs-Henseleit buffer (made fresh each day), which is gassed continuously with carbogen (95% O2, 5% CO2) at a pressure of 100 mmHg, at 37° C.
6. Attach a hook, connected to a transducer (Physiograph MK-111-S, Narco Bio-Systems) to the apex of the heart.
7. Perfuse heart for 20 min. with Krebs-Henseleit buffer to enable heart to stabilize (reservoir volume: 270 ml).
8. […]

As for `OC[C@H]1O[C@@H](O[C@H]2[C@H](O)[C@@H](O)[C@@H](O)O[C@@H]2CO)[C@H](O)[C@@H](O)[C@H]1O` [Lactose, 4-O-β-D.galactopyranosyl-α-D-glucose], the “cardiac function of rat heart perfused with human plasma plus sugar” value (“cardiac function of rat heart perfused” for short) is recorded as “does-not prolong heart survival”. For the same compound, for the setting “listed as lactose”, the “cardiac function of rat heart perfused” value is reported as “the heart essentially stopped beating within minutes. The same result was obtained”. `O=C[C@H](O)[C@@H](O)[C@H](O)[C@H](O)CO[C@H]1O[C@H](CO)[C@H](O)[C@H](O)[C@H]1O` [Melibiose, 6-O-α-D-galactopyranosyl-D-glucose]: the “cardiac function of rat heart perfused” value is “the heart was able to maintain a strong beat; also recorded: prolongs heart survival and output”.
